How the values were obtained:
[1] = Uricosuric action: serum uric acid level in healthy male adult volunteers; type: in vivo, humans; conditions: single oral dose 600 mg (two capsules of Example 1), N = 6
Protocol: Compound A, in a single dose of 600 mg (two capsules according to the example (1) given hereinafter), was administered orally to six humans (healthy male adult volunteers) and the serum uric acid level was determined for 48 hours after administration.

[2] = Acute toxicity, oral, 14 days observation; conditions: rat, in vivo, male SD rats
Source text: Male SD rats (5 animals per group) were orally dosed with a suspension of the test compound in 0.5% methylcellulose solution and observed for 14 days after oral administration.

[3] = Effect on uric acid excretion in female rats (urinary uric acid assayed by HPLC); type: in vivo, female SD rats; conditions: p.o., urine collected 0-6 hr, dose 0: 3.07 ± 0.44
Protocol: Female SD rats (6 weeks old) were fasted for 18 hours and submitted to the test (3 animals per group).
Compound B was suspended in 0.5% methylcellulose solution and the suspension was orally administered in a dosing volume of 5 ml/kg.
At the same time, the animals were orally loaded with 20 ml/kg of physiological saline. Urine samples were collected up to 6 hours after drug administration. The uric acid in each urine sample was assayed by HPLC.

Compound | Serum uric acid concentration, mean ± standard deviation ([1]; 4 Hrs. after administration, *: significant decrease from baseline (5.5500 ± 0.9439), < 0.05) [mg/dL] | Serum uric acid concentration, mean ± standard deviation ([1]; 8 Hrs. after administration, **: significant decrease from baseline (5.5500 ± 0.9439), P < 0.01) [mg/dL] | Serum uric acid concentration, mean ± standard deviation ([1]; 12 Hrs. after administration, **: significant decrease from baseline (5.5500 ± 0.9439), P < 0.01) [mg/dL] | Serum uric acid concentration, mean ± standard deviation ([1]; 24 Hrs. after administration, *: significant decrease from baseline (5.5500 ± 0.9439), < 0.05) [mg/dL] | Serum uric acid concentration, mean ± standard deviation ([1]; 48 Hrs. after administration, *: significant decrease from baseline (5.5500 ± 0.9439), < 0.05) [mg/dL] | LD50 at 336 h [2] [mg/kg] | Excretion of uric acid, mean ± S.E. ([3]; 10 mg/kg) [mg/kg] | Excretion of uric acid, mean ± S.E. ([3]; 100 mg/kg) [mg/kg] | Excretion of uric acid, mean ± S.E. ([3]; 320 mg/kg, *: P < 0.05) [mg/kg]
O=C(O)Cn1c(=O)n(Cc2ccc(Br)cc2F)c(=O)c2ccc(Cl)cc21 [Compound A] | 4.5000 ± 0.6542 | 4.0333 ± 0.6250 | 4.1667 ± 0.7448 | 4.3167 ± 0.7360 | 4.5167 ± 0.5981 | 4250 |  |  | 
O=C(O)Cn1c(=O)n(Cc2ccc(Br)cc2F)c(=O)c2ccc(F)cc21 [Compound B, 2-[7-Fluoro-3-(4-bromo-2-fluorobenzyl)-1,2,3,4-tetrahydro-2,4-dioxoquinazolin-1-yl]acetic acid] |  |  |  |  |  | 2140 | 3.36 ± 0.14 | 4.02 ± 0.18 | 4.88 ± 0.24
